ChEMBL document CHEMBL4340578, “11-Aminostrychnine and N-(Strychnine-11-yl)propionamide: Synthesis, Configuration, and Pharmacological Evaluation at Glycine Receptors” (J Nat Prod, 2019)
pIC50, pKi: −log10 of the molar value.

Columns and labels:
[1] = molecular target: T1, Glycine receptor subunit alpha-1 (Homo sapiens, UniProt P23415); test: Antagonist activity at human glycine receptor subunit alpha-1 expressed in human tsA201 cells assessed as reduction in glycine-induced response by fluorescence-based FLIPR membrane potential blue assay; format: cell-based
T1 sequence (P23415 whole entry): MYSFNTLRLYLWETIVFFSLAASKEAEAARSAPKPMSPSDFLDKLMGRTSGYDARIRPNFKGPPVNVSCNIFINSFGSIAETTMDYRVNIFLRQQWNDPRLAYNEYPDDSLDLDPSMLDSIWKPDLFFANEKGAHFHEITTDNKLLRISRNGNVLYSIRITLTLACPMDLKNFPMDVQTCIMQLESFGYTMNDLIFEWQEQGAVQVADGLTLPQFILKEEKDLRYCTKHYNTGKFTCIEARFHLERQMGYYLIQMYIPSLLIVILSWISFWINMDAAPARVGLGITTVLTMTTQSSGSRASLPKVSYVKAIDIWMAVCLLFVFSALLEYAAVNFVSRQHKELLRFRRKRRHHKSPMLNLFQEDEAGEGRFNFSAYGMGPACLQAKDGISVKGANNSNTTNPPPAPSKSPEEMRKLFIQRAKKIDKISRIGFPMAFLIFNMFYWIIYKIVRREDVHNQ

[2] = molecular target: T1, Glycine receptor subunit alpha-1; test: Displacement of [3H]strychnine from human glycine receptor subunit alpha-1 expressed in HEK293 cell membranes
[3] = molecular target: T2, Glycine receptor (alpha-1/beta) (Homo sapiens, UniProt P23415+P48167); test: Antagonist activity at human glycine receptor subunit alpha-1beta expressed in human tsA201 cells assessed as reduction in glycine-induced response by fluorescence-based FLIPR membrane potential blue assay; format: cell-based
[4] = molecular target: T1, Glycine receptor subunit alpha-1; test: Antagonist activity at human glycine receptor subunit alpha-1 expressed in HEK293 cells assessed as reduction in glycine-induced whole cell currents by patch-clamp technique; format: cell-based
[5] = molecular target: T2, Glycine receptor (alpha-1/beta); test: Antagonist activity at human glycine receptor subunit alpha-1beta expressed in HEK293 cells assessed as reduction in glycine-induced whole cell currents by patch-clamp technique; format: cell-based

T2 sequence (P48167 whole entry, one chain of several): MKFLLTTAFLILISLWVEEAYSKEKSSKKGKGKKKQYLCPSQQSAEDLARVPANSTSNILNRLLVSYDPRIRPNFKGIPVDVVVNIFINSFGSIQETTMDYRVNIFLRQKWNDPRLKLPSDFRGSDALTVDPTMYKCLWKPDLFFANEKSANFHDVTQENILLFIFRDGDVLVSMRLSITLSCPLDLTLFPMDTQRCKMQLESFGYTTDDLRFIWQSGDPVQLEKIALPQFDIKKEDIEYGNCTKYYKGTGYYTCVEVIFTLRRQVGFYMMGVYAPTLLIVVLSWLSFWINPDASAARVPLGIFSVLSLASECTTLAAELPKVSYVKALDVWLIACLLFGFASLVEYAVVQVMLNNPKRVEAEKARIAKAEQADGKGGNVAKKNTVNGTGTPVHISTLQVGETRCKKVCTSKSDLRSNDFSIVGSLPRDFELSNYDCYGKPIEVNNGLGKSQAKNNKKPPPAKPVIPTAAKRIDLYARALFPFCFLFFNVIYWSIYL

| Compound | pIC50 [1] | pKi [2] | pIC50 [3] | pIC50 [4] | pIC50 [5] |
| --- | --- | --- | --- | --- | --- |
| N[C@@H]1C(=O)N2c3ccccc3[C@@]34CCN5CC6=CCO[C@@H]1[C@@H]([C@H]23)[C@H]6C[C@H]54 | 6.00 | 6.13 | 5.11 | 6.71 | – |
| CCC(=O)N[C@@H]1C(=O)N2c3ccccc3[C@@]34CCN5CC6=CCO[C@@H]1[C@@H]([C@H]23)[C@H]6C[C@H]54 | 6.15 | 7.04 | 5.66 | 6.76 | 6.83 |
| O=C1C[C@@H]2OCC=C3CN4CC[C@]56c7ccccc7N1[C@H]5[C@H]2[C@H]3C[C@H]46 [STRYCHNINE] | 6.82 | 6.91 | 6.29 | – | – |
